Data: BindingDB's records for PubMed 37713805 (University of Michigan)

Biological target: Mitogen-activated protein kinase kinase kinase 12 (Homo sapiens) (UniProt Q12852)
Assay: Binding affinity to DLK (unknown origin) assessed as inhibition constant

Sequence of Mitogen-activated protein kinase kinase kinase 12 (Homo sapiens) (Q12852 whole entry, looked up): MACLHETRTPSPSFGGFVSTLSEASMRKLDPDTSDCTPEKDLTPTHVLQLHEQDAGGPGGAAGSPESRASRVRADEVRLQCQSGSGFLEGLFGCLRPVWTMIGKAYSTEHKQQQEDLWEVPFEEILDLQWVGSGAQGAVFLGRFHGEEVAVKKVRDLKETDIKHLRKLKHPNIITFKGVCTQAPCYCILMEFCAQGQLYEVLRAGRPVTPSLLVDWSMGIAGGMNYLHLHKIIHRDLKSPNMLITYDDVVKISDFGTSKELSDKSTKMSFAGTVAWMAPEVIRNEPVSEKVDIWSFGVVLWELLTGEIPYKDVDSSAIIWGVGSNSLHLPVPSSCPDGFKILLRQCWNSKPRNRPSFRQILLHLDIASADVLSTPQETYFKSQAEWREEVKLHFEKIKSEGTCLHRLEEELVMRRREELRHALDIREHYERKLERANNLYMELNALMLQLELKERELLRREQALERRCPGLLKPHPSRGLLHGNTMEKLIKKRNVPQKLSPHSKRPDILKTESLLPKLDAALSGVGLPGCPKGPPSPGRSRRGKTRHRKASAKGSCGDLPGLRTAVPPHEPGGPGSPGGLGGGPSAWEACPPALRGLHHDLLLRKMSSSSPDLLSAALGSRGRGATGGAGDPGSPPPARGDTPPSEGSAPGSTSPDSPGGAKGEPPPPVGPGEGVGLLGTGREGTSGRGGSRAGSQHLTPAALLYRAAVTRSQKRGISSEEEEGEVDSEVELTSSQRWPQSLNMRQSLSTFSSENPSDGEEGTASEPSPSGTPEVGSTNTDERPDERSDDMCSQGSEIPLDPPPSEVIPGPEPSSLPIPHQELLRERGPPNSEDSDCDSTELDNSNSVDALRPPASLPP

Question: For `CC(=O)N1CCC(c2cc(Nc3cc(C#N)ccn3)nc(N3CCC(F)(F)C3)c2)CC1`, which Ki is on record?
Answer: 0.025 µM
